Laboratory results taken from patent US20230355571A1, “METHOD FOR TREATING VIRAL AND BACTERIAL INFECTION THROUGH INHALATION THERAPY” (priority 2020, published 2023).
Where two headings read alike, the source gives them in different places.

Assays:
hTRPA1 = hTRPA1 (Homo sapiens, UniProt O75762); conditions: cited from earlier work; for inhibition of hTRPA1 activation by menthol and AITC: compound at 1 mM, menthol 1 mM, AITC 10 uM
rats [1] = conditions: oral, rat, cited from earlier work
[2] = cited from earlier work
guinea pigs [3] = conditions: cited from earlier work
[4] = test system: primary human bronchial epithelial cells; conditions: pretreatment; cited from earlier work
COPD patients = conditions: orally 600 mg/day, cited from earlier work
[5] = test system: CdCl2 treated human lung cells; conditions: 2.5 mM; 75 μM CdCl2; cited from earlier work
H5N1 influenza A virus = conditions: 5 mM (816 mg/L) to 15 mM (2,448 mg/L), 24 hrs post-infection; cited from earlier work
mice [6] = conditions: inhalation; cited from earlier work
rats [7] = test: NOAEL, oral, rats; type: in vivo
Protocol: The NOAEL value for Polysorbate 20 taken orally in rats is greater than 2,500 mg/kg (body weight), the highest dose tested.

mice [8] = conditions: cited from earlier work
CB2 receptor = CB2 receptor (Homo sapiens, UniProt P34972); conditions: unit inferred; read-out: Ki, CB2 receptor binding; cited from earlier work
Sequence of CB2 receptor (P34972 whole entry): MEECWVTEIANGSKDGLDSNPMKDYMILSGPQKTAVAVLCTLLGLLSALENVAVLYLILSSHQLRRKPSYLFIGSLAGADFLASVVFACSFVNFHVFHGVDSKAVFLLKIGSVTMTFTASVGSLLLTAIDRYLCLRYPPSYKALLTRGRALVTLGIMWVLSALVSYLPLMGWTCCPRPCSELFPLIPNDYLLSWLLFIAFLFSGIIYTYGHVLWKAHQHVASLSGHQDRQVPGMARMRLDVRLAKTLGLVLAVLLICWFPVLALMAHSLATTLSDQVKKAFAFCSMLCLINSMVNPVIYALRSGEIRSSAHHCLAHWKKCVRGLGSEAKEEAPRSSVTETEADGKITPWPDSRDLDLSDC

mice [9] = conditions: intraperitoneal 5 and 10 mg/kg-d pretreatment; cited from earlier work
TRAPA1 = TRAPA1 (Homo sapiens, UniProt O75762); conditions: read-out: IC50, TRPA1 antagonist; cited from earlier work
Sequence of TRAPA1 (O75762 whole entry): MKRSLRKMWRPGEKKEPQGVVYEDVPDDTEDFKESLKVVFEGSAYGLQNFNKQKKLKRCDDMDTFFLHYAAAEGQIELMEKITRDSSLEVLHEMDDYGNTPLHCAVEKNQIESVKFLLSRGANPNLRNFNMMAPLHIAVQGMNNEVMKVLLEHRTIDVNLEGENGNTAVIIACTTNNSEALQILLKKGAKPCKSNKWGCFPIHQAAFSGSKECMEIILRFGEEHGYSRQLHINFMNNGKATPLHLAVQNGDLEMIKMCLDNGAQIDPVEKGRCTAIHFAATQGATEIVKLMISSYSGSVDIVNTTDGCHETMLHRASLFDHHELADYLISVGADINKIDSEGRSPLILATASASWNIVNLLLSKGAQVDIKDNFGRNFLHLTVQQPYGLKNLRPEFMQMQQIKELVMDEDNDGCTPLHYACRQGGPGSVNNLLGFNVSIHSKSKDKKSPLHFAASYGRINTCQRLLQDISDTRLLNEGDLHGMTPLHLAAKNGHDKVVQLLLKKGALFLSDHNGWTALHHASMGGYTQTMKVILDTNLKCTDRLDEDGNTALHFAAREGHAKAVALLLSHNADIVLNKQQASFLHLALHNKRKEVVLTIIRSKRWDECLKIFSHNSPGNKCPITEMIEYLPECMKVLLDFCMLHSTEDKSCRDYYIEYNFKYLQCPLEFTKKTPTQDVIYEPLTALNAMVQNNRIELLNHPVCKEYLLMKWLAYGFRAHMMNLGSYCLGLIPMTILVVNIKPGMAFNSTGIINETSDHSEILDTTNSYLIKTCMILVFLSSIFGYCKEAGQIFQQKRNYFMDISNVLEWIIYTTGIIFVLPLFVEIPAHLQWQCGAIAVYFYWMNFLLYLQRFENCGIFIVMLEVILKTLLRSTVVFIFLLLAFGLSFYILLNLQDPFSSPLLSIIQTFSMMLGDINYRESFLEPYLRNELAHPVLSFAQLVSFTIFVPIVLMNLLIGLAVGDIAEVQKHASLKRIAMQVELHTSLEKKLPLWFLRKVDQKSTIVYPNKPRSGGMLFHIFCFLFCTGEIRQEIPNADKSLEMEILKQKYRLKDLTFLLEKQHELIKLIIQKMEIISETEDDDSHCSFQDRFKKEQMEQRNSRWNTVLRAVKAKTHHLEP

TRPV1 = TRPV1 (Homo sapiens, UniProt Q8NER1); conditions: cited from earlier work
Sequence of TRPV1 (Q8NER1 whole entry, species assumed): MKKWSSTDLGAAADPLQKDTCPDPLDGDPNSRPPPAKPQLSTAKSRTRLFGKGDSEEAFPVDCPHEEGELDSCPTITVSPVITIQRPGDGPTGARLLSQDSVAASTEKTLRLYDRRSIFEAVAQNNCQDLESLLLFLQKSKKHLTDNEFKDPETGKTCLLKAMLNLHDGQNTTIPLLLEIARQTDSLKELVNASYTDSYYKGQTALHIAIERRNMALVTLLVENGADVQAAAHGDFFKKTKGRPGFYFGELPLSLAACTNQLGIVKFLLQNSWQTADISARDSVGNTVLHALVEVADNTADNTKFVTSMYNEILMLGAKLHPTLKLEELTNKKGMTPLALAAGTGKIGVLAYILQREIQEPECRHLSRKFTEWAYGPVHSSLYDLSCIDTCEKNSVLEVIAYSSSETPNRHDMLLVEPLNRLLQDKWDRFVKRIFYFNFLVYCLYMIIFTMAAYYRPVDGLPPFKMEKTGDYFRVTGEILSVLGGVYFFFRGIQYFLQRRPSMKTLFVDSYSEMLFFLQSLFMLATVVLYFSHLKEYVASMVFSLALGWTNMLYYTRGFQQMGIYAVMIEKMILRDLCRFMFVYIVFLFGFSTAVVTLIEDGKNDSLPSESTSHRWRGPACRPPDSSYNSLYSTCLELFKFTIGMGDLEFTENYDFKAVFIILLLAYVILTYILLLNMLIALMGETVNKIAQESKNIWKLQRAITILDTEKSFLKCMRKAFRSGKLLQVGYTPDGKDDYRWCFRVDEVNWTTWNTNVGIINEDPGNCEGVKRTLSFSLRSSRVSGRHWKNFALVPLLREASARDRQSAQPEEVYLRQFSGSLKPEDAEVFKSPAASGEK

TRPV4 = TRPV4 (Homo sapiens, UniProt Q9HBA0); conditions: cited from earlier work
Sequence of TRPV4 (Q9HBA0 whole entry, species assumed): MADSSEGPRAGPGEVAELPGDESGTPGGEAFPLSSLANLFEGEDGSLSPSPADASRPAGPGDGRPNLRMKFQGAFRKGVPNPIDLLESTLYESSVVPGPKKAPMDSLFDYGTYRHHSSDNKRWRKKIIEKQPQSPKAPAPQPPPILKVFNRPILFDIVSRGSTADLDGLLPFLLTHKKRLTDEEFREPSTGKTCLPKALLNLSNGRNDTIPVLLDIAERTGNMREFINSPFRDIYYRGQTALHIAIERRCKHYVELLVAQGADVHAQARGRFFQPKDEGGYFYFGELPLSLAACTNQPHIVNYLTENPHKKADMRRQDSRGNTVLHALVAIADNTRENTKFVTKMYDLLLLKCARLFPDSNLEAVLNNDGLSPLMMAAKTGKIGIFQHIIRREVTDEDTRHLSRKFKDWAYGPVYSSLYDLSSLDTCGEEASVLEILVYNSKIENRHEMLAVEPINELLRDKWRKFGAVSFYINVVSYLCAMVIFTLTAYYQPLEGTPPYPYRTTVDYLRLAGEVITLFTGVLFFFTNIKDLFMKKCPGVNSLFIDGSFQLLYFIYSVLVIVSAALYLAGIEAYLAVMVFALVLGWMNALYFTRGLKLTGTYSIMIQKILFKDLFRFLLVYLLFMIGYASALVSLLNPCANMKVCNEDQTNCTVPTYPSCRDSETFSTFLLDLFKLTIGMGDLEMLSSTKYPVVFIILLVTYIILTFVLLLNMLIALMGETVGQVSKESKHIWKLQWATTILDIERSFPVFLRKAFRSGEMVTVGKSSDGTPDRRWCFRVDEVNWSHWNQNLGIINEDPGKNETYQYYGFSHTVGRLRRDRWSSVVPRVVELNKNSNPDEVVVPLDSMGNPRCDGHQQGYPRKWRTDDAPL

HEK293 cell = conditions: cited from earlier work
[10] = in vivo; cited from earlier work
asthma patients = conditions: human, in vivo; cited from earlier work
human MonoMac6 cells = conditions: cells pretreated; cited from earlier work
mice [11] = conditions: oral (species not given; mice); cited from earlier work
mice [12] = test: NOAEL, oral, mice
human lung cancer A549 = conditions: in vitro and ex vivo; cited from earlier work
leukemia K562 cells = conditions: in vitro and ex vivo; cited from earlier work
guinea pigs [13] = conditions: pretreatment; cited from earlier work
[14] = test system: Human respiratory syncytial virus (hRSV); conditions: 14 days prior to challenge and 3 days post challenge; cited from earlier work
[15] = 100 μM, in the presence of 2 mM N-acetyl cysteine; cited from earlier work
rats [16] = conditions: 50 mg/kg orally each day; smoke 1 hr/day for 56 days; cited from earlier work
[17] = 2 mL/dose 4 times per day of Table A2 composition
[18] = Table A2 Preferred Base Viral Nebulizer Liquid, single 2 mL dose, 25 mL ELF, 100 percent retained
[19] = Table A3 Preferred Viral Respiratory Challenged Nebulizer Liquid, single 2 mL dose, 25 mL ELF, 100 percent retained
[20] = Table A4 Preferred Bacterial Pneumonia Nebulizer Liquid, single 2 mL dose, 25 mL ELF, 100 percent retained
[21] = Table A6 Preferred Base Nebulizer Liquid with Amino Acids, single 2 mL dose, 25 mL ELF, 100 percent retained

Sequence of hTRPA1 (O75762 whole entry): as the sequence (O75762 whole entry) above

CC1(C)[C@@H]2CC[C@@]1(C)[C@](C)(O)C2 [2-methylosoborneol, 2-methylisoborneol]
IC50 (hTRPA1; TRPA1 activated by 20 uM AITC, read-out: IC-50 concentration, inactivation of TRPA1 activation): 120000 nM | activation of hTRPA1 (hTRPA1): did not activate | inhibition of hTRPA1 activation by menthol and AITC (hTRPA1): completely inhibited

C=C1CC/C=C(\C)CC[C@@H]2[C@@H]1CC2(C)C [B-Caryophyllene]
NOAEL (rats [1]; 90 d): >700 mg/kg | LD50 ([2]; oral, rat): >5,000 mg/kg

Cn1c(=O)c2c(CC(=O)Nc3nc(-c4ccc(F)c(C(F)(F)F)c4F)cs3)csc2n(C)c1=O [GRC 17536]
citric acid induced tussive response (guinea pigs [3]): inhibited

CC(C)c1ccc(NC(=O)Cn2cnc3c2c(=O)n(C)c(=O)n3C)cc1 [HC-030031]
Ca^2+ influx induced by cigarette smoke extract [4]: similar | tussive response induced by TRPA1 agonists (AITC, acrolein, crotonaldehyde, cinnamaldehyde) (guinea pigs [3]): attenuated

CC(=O)N[C@@H](CS)C(=O)O [N-acetyl cysteine]
estimated concentration in the epithelial lining fluid of the lungs (human): 889 µg/mL | sputum eosinophil cationic protein concentrations (COPD patients; COPD patients): reduced | lung lavage glutathione levels (COPD patients): increased | superoxide production by alveolar macrophages (COPD patients): reduced | morphology and viability of CdCl2 treated human lung cells [5]: restored the morphology and viability | H5N1-induced cytopathogenic effects, virus-induced apoptosis, and viral yields (H5N1 influenza A virus): reduces | Ca^2+ influx induced by cigarette smoke extract [4]: prevented | lung fibrosis induced by bleomycin (mice [6]): inhibited | LD50 ([2]; in vivo): 5050 mg/kg | LD50 ([2]; oral, rat): 5,050 mg/kg

CCCCCCCCCCCC(=O)OCCOCCOCCOCCOCCOCCOCCOCCOCCOCCOCCOCCOCCOCCOCCOCCOCCOCCOCCOCCOCC(OCCOCCOCCOCCOCCOCCOCCOCCOCCOCCOCCOCCOCCOCCOCCOCCOCCOCCOCCOCCO)C1OCC(OCCOCCOCCOCCOCCOCCOCCOCCOCCOCCOCCOCCOCCOCCOCCOCCOCCOCCOCCOCCO)C1OCCOCCOCCOCCOCCOCCOCCOCCOCCOCCOCCOCCOCCOCCOCCOCCOCCOCCOCCOCCO (stereo not drawn) [Polysorbate 20]
factor NOAEL over daily inhaled dose (rats [7]; [17]): 2,980 times | NOAEL for a 62 kg adult human (rats [7]; extrapolated from rat NOAEL): 155,000 mg per day | Concentration in Epithelial Lining Fluid [18]: 530 µg/mL | Concentration in Epithelial Lining Fluid [19]: 1070 µg/mL | Concentration in Epithelial Lining Fluid [20]: 1330 µg/mL | Concentration in Epithelial Lining Fluid [21]: 1330 µg/mL | Concentration in Epithelial Lining Fluid (human): 1870 µg/mL | NOAEL (rats [1]): 2,500 mg/kg | LD50 ([2]; in vivo): 3,850 mg/kg

Oc1ccc(C=Cc2cc(O)cc(O)c2)cc1 [Resveratrol]
cigarette smoke-induced lung inflammation (mice [8]): decreased

CCCCC/C=C\C/C=C\C/C=C\C/C=C\CCCC(=O)OC(CO)CO [Table 2-AG, 2-arachidonoyl-glycerol, reference compound]
Ki (CB2 receptor): 650 nM

NCCS(=O)(=O)O [Taurine]
Concentration in Epithelial Lining Fluid (human): 2670 µg/mL

COc1ccc2cc3[n+](cc2c1OC)CCc1cc2c(cc1-3)OCO2 [berberine]
cigarette smoke-induced airway inflammation and mucus production (mice [9]): inhibited

CC1(C)C2CCC1(C)C(O)C2 (stereo not drawn) [borneol]
activation of hTRPA1 (hTRPA1): did not activate | inhibition of hTRPA1 activation by menthol and AITC (hTRPA1): completely inhibited

CC12CCC(CC1=O)C2(C)C (stereo not drawn) [camphor]
activation of hTRPA1 (hTRPA1): did not activate

COc1cc(O)cc(O)c1C(=O)/C=C/c1ccccc1 [cardamonin]
IC50 (TRAPA1): 454 nM | effect on TRPV1 (TRPV1): not affecting | effect on TRPV4 (TRPV4): not affecting | HEK293 cell viability (HEK293 cell): did not significantly reduce

CC12CCC(C1)C(C)(C)C2O (stereo not drawn) [fenchyl alcohol]
activation of hTRPA1 (hTRPA1): did not activate | inhibition of hTRPA1 activation by menthol and AITC (hTRPA1): completely inhibited

N[C@@H](CCC(=O)N[C@@H](CS)C(=O)NCC(=O)O)C(=O)O [glutathione, γ-L-glutamyl-L-cysteinyl-glycine]
estimated concentration in the epithelial lining fluid of the lungs (human): 889 µg/mL | adverse effects of aerosol administration [10]: no adverse effects | period epithelial lung fluid glutathione remained elevated [10]: 2 h | change from baseline FEV1 (asthma patients): −19% | change from baseline total pulmonary resistance (asthma patients): +61% | LD50 ([2]; in vivo): 5000 mg/kg | LD50 ([2]; oral, mouse): 5,000 mg/kg | cigarette smoke extract-mediated IL-8 release (human MonoMac6 cells): significantly inhibited

C/C1=C2/[N-][C@H]([C@H](CC(N)=O)[C@@]2(C)CCC(=O)NC[C@@H](C)OP(=O)([O-])O[C@H]2[C@@H](O)[C@@H](n3cnc4cc(C)c(C)cc43)O[C@@H]2CO)[C@]2(C)N=C(/C(C)=C3N=C(/C=C4N=C1[C@@H](CCC(N)=O)C\4(C)C)[C@@H](CCC(N)=O)[C@]\3(C)CC(N)=O)[C@@H](CCC(N)=O)[C@]2(C)CC(N)=O.[CH3-].[Co+3] [methylcobalamin]
Concentration in Epithelial Lining Fluid [18]: 0.5 µg/mL | Concentration in Epithelial Lining Fluid [19]: 1.1 µg/mL | Concentration in Epithelial Lining Fluid [20]: 1.1 µg/mL | Concentration in Epithelial Lining Fluid [21]: 1.1 µg/mL | NOAEL (mice [11]): 500 mg/kg | factor NOAEL over daily inhaled dose (mice [12]; [17]): 596,254 times | NOAEL for a 62 kg adult human (mice [12]; extrapolated from mouse NOAEL): 31,000 mg per day

O=C1CC2CC[C@H]1C2 [norcamphor]
activation of hTRPA1 (hTRPA1): did not activate

CCNC(=O)CC[C@H](N)C(=O)O [theanine, L-theanine]
Concentration in Epithelial Lining Fluid (human): 2670 µg/mL | growth of A549 cells (human lung cancer A549): significantly suppressed | growth of K562 cells (leukemia K562 cells): significantly suppressed

CC1=CC(=O)C(C(C)C)=CC1=O [thymoquinone]
bronchoalveolar lavage fluid IL-8 (guinea pigs [13]): significantly decreased | bronchoalveolar lavage fluid LTB4 (guinea pigs [13]): did not significantly change

OC[C@@H](O)[C@H](O)[C@@H](O)CO [xylitol]
lung virus titers versus phosphate-buffered saline controls [14]: significantly greater reductions

epigallocatechin-3-gallate
increase of cellular uptake [15]: 2.5 times | cigarette smoke-induced oxidative stress and neutrophilic inflammation, airway mucus production and collagen deposition (rats [16]): ameliorated | bronchoalveolar lavage fluid IL-8 (guinea pigs [13]): significantly reduced | bronchoalveolar lavage fluid LTB4 (guinea pigs [13]): significantly reduced
